18 compounds from patent publication US20150259331A1, “PROTOZOAN PARASITE GROWTH INHIBITORS” (Northeastern University, priority 2014, published 2015) can be followed below.

Where two headings read alike, the source gives them in different places. Marks after values point to notes of the source that are not given here.

For test [1], the system named is T. brucei brucei Lister 427. The test can be described thus: Trypanosome replication assay. The settings on record: 48 h, values ±7%. It is filed as cell-based, Trypanosoma brucei brucei. The method, then:
Then 2 μL of DMSO (control) or different concentrations of drugs prepared from 200× DMSO stocks were added to the cultures. Cells were incubated at 37° C. for 48 h and counted with a hemocytometer. […] All experiments were repeated thrice in independent studies where each dose was administered in duplicate (total n=6). HepG2 Cell Toxicity Assay. The 384 well MTT cytotoxicity assay is a modification of the MTT method described by Ferrari et al. optimized for 384-well throughput, with modifications described below.

Test [2] relates to T. cruzi. The test can be described thus: T. cruzi growth inhibition. It is filed as cell-based, Trypanosoma cruzi.
Test [3] has as its system L. major promastigote. The test can be described thus: L. major promastigote assay. The format is cell-based.
Test [4] has as its system L. major amastigote. The test is described as follows: L. major amastigote assay. The format is cell-based.
Test [5] relates to P. falciparum D6. The test can be described thus: P. falciparum D6 assay. It is filed as cell-based. The settings on record: strain D6.
The subject of test [6] is P. falciparum W2. The test is described as follows: P. falciparum W2 assay. The format is cell-based.
Test [7] concerns P. falciparum C235. The test is described as follows: P. falciparum C235 assay. The format is cell-based. The settings on record: read-out: P. falciparum C235 (EC50).
Setting [8] is: concentration giving 50% inhibition of growth of T brucei brucei Lister 427 cells, read-out: Tbb EC50.
The mark [9] stands for this setting: strain W2, read-out: P. falciparum W2 (EC50).
[10] abbreviates: Trypanosoma brucei, concentration giving 50% inhibition of growth of T brucei brucei Lister 427 cells, read-out: Tbb EC50.
The mark [11] stands for this setting: Plasmodium falciparum, strain W2, read-out: P. falciparum W2 (EC50).
Setting [12] is: Plasmodium falciparum, strain C235.

Take `Fc1cccc(Cn2ncc3ccc(Nc4ncnc5ccc(-c6cccc(N7CCOCC7)c6)cc45)cc32)c1` [NEU-734]: the EC50 is 0.84 µM in test [1] (setting [8]); 0.98 µM in test [3]; more than 15 µM in test [4]; 0.91 µM in test [5]; 0.74 µM in test [6] (setting [9]); 1.1 µM in test [7] (strain C235). The “T. cruzi % inh at 10 μM” value in test [2] was “(62)* %”.
On to `CN1CCN(S(=O)(=O)c2ccc(-c3ccc4ncnc(Nc5ccc(F)cc5)c4c3)cc2)CC1` [NEU-768], for which the EC50 in test [1] (setting [8]) was 2 µM; in test [2], more than 50 µM; in test [3], 12 µM; in test [4], more than 15 µM; in test [5], 0.36 µM; in test [6] (setting [9]) it was 0.78 µM. The EC50 in test [7] (strain C235) stood at 0.38 µM.
Consider `Fc1cccc(COc2ccc(Nc3ncnc4ccc(-c5ccc(N6CCCCC6)cc5)cc34)cc2Cl)c1` [Compound 23h, N-(3-Chloro-4-((3-fluorobenzyl)oxy)phenyl)-6-(4-(piperidin-1-yl)phenyl)quinazolin-4-amine], for which the EC50 in test [1] (Trypanosoma brucei, read-out: Tbb EC50, concentration giving 50% inhibition of growth of T brucei brucei Lister 427 cells) is 0.38 µM; in test [2] (Trypanosoma cruzi), 7.2 µM; in test [3] (Leishmania major), more than 15 µM; in test [4] (Leishmania major) it was 5 µM; in test [5] (Plasmodium falciparum), 0.58 µM; in test [6] (Plasmodium falciparum, W2, read-out: P. falciparum W2 (EC50)) it was 1.2 µM. For the same compound, the EC50 in test [7] (Plasmodium falciparum) is 1 µM.
Turning to `Fc1cccc(COc2ccc(Nc3ncnc4ccc(-c5ccccc5)cc34)cc2Cl)c1` [NEU-706], the EC50 in test [1] (setting [8]) was 3.9 µM; in test [2] it was 1.8 µM; in test [3], 4 µM; in test [4], 22 µM; in test [5] it was 0.79 µM; in test [6] (setting [9]) it was 2.6 µM. Further, in test [7] (strain C235), the EC50 amounted to 1.2 µM.
With `CN1CCN(S(=O)(=O)c2cccc(-c3ccc4ncnc(Nc5ccc(OCc6cccc(F)c6)c(Cl)c5)c4c3)c2)CC1` [NEU-770], the EC50 in test [1] (setting [8]) was 3.3 µM; in test [2] it was 1.4 µM; in test [3], more than 15 µM; in test [4], 1.2 µM; in test [5], 0.038 µM; in test [6] (setting [9]), 0.084 µM. Moreover, in test [7] (strain C235), the EC50 amounted to 0.033 µM.
In the case of `O=C(c1ccc(-c2ccc3ncnc(Nc4ccc(OCc5cccc(F)c5)c(Cl)c4)c3c2)cc1)N1CCOCC1` [Compound 23f, (4-(4-((3-Chloro-4-((3-fluorobenzyl)oxy)phenyl)amino)-quinazolin-6-yl)phenyl)(morpholino)methanone], the EC50 in test [1] (setting [10]) was found to be 1.21 µM; in test [1] (concentration giving 50% inhibition of growth of T brucei brucei Lister 427 cells, listed as NEU-783, read-out: Tbb EC50) it was 1.2 µM; in test [2] (Trypanosoma cruzi), 2.8 µM; in test [3] (Leishmania major), 0.85 µM; in test [4] (Leishmania major), 1.4 µM; in test [5] (Plasmodium falciparum) it was 0.4 µM. For the same compound, the EC50 in test [6] (setting [11]) was 0.86 µM; in test [7] (setting [12]), 0.61 µM.
Turning to `CN(C)c1cccc(-c2ccc3ncnc(Nc4ccc(OCc5cccc(F)c5)c(Cl)c4)c3c2)c1` [NEU-708], the EC50 in test [1] (setting [8]) was 2.2 µM; in test [3], more than 15 µM; in test [4] it was more than 15 µM; in test [5], 0.46 µM; in test [6] (setting [9]), 1.4 µM; in test [7] (strain C235) it was 0.55 µM. The “T. cruzi % inh at 10 μM” value in test [2] is listed as “(58)* %”.
As to `O=C(c1cccc(-c2ccc3ncnc(Nc4ccc(OCc5cccc(F)c5)c(Cl)c4)c3c2)c1)N1CCOCC1` [Compound 23e, (3-(4-((3-Chloro-4-((3-fluorobenzyl)oxy)phenyl)amino)-quinazolin-6-yl)phenyl)(morpholino)methanone], the EC50 was 0.55 µM in test [1] (setting [10]); 3.5 µM in test [2] (Trypanosoma cruzi); 3 µM in test [3] (Leishmania major); more than 15 µM in test [4] (Leishmania major); 0.76 µM in test [5] (Plasmodium falciparum); 1.1 µM in test [6] (setting [11]). In test [7] (setting [12]), the EC50 turned out to be 1.2 µM.
In the case of `CN1CCN(S(=O)(=O)c2ccc(-c3ccc4ncnc(Nc5ccc(Cl)cc5)c4c3)cc2)CC1` [NEU-769], the EC50 in test [1] (setting [8]) is 2.4 µM; in test [2], 21 µM; in test [3], 4.6 µM; in test [4], more than 15 µM; in test [5] it was 0.11 µM; in test [6] (setting [9]), 0.39 µM. Also, the EC50 in test [7] (strain C235) was determined as 0.17 µM.
On to `CN1CCN(S(=O)(=O)c2ccc(-c3ccc4ncnc(Nc5ccccc5)c4c3)cc2)CC1` [NEU-767], for which the EC50 in test [1] (setting [8]) was 1.5 µM; in test [2], more than 50 µM; in test [3], 6.1 µM; in test [4], more than 15 µM; in test [5] it was 0.7 µM; in test [6] (setting [9]) it was 1.5 µM. In addition, in test [7] (strain C235), the EC50 turned out to be 0.73 µM.
Consider `CN1CCN(S(=O)(=O)c2ccc(-c3ccc4ncnc(Nc5ccc(OCc6ccccc6)c(Cl)c5)c4c3)cc2)CC1` [NEU-764], for which the EC50 in test [1] (setting [8]) turned out to be 0.61 µM; in test [2] it was 3.9 µM; in test [3], 3.4 µM; in test [4], 2.2 µM; in test [5] it was 0.029 µM; in test [6] (setting [9]), 0.051 µM. Also, the EC50 in test [7] (strain C235) was found to be 0.028 µM.
As to `O=C(c1cncc(-c2ccc3ncnc(Nc4ccc(OCc5cccc(F)c5)c(Cl)c4)c3c2)c1)N1CCOCC1` [NEU-640], the EC50 in test [1] (setting [8]) is 0.34 µM; in test [3], more than 15 µM; in test [4], more than 15 µM; in test [5], 0.37 µM; in test [6] (setting [9]), 0.63 µM; in test [7] (strain C235) it was 0.5 µM. Besides, in test [2], the “T. cruzi % inh at 10 μM” value is −2%.
Turning to `Fc1cccc(COc2ccc(Nc3ncnc4ccc(-c5ccc(N6CCNCC6)cc5)cc34)cc2Cl)c1` [NEU-710], the EC50 is 0.37 µM in test [1] (setting [8]); 1.4 µM in test [2]; more than 15 µM in test [3]; 8.6 µM in test [4]; 0.38 µM in test [5]; 0.63 µM in test [6] (setting [9]). Also, the EC50 in test [7] (strain C235) came to 0.76 µM.
In the case of `CC(C)(C)OC(=O)N1CCN(S(=O)(=O)c2ccc(-c3ccc4ncnc(Nc5ccc(OCc6cccc(F)c6)c(Cl)c5)c4c3)cc2)CC1` [NEU-624], the EC50 is 1 µM in test [1] (setting [8]); 14 µM in test [3]; 14 µM in test [4]; 0.27 µM in test [5]; 0.58 µM in test [6] (setting [9]); 0.43 µM in test [7] (strain C235). The “T. cruzi % inh at 10 μM” value in test [2] is “(5)* %”.
For `CN1CCN(S(=O)(=O)c2ccc(-c3ccc4ncnc(Nc5ccc(OCc6ccccc6)cc5)c4c3)cc2)CC1` [NEU-765], the EC50 in test [1] (setting [8]) was found to be 0.63 µM; in test [2], 9.9 µM; in test [3], 1.5 µM; in test [4] it was 1.9 µM; in test [5], 0.041 µM; in test [6] (setting [9]), 0.11 µM. Moreover, the EC50 in test [7] (strain C235) worked out at 0.036 µM.
Turning to `Fc1cccc(COc2ccc(Nc3ncnc4ccc(-c5ccc(CN6CCCCC6)cc5)cc34)cc2Cl)c1` [Compound 23j], the EC50 in test [1] (setting [8]) is 1.5 µM; in test [2], 3.4 µM; in test [3] it was 8.4 µM; in test [4], 5.5 µM; in test [5] it was 0.068 µM; in test [6] (setting [9]) it was 0.11 µM. For the same compound, the EC50 in test [7] (strain C235) was 0.091 µM.
Take `CN1CCN(S(=O)(=O)c2ccc(-c3ccc4ncnc(Nc5ccc6cnn(Cc7cccc(F)c7)c6c5)c4c3)cc2)CC1` [NEU-771]: the EC50 in test [1] (setting [8]) was 1.2 µM; in test [2], 1.5 µM; in test [3] it was more than 15 µM; in test [4], more than 15 µM; in test [5] it was 0.039 µM; in test [6] (setting [9]) it was 0.09 µM. Also, the EC50 in test [7] (strain C235) was found to be 0.04 µM.
In the case of `Fc1cccc(COc2ccc(Nc3ncnc4ccc(-c5cccc(CN6CCCCC6)c5)cc34)cc2Cl)c1` [Compound 23i], the EC50 in test [1] (setting [8]) came out at 0.65 µM; in test [2], 1.5 µM; in test [3], 2.5 µM; in test [4], 3.5 µM; in test [5] it was 0.039 µM; in test [6] (setting [9]) it was 0.073 µM. Also, in test [7] (strain C235), the EC50 turned out to be 0.065 µM.
